Structures can show the parent of a compound that is named as a salt.
Key:
[1] = system: Encephalomyocarditis virus (EMCV); experiment: Antiviral activity assay (0.1–1000 µM), IC50; type: cell-based; conditions: Cardiovirus A, MOI 0.005, read-out: IC50 EMCV
Description: (§1) Antiviral properties of compounds 1e–1g, 1e[PF6], 8a–8d, and 9a were assessed against five viruses: Human herpesvirus 1 (HSV-1, VR-539), Human parainfluenza virus type 3 (HPIV-3, VR-93), Human adenovirus 5 (AdV5, VR-5), Human herpesvirus 5 (HCMV, VR-977), and Encephalomyocarditis virus (EMCV, VR-1479). Viruses were purchased from the American Type Culture Collection (ATCC, Manassas, VA, USA).
(§2) All tested compounds were dissolved in DMSO (dimethyl sulfoxide, Sigma-Aldrich, Darmstadt, Germany) and then suspended in Minimum Essential Medium (MEM; Sigma-Aldrich, Darmstadt, Germany) supplemented with 2% heat-inactivated fetal bovine serum (FBS; Sigma-Aldrich, Darmstadt, Germany), 2 mM L-glutamine (Sigma-Aldrich, Darmstadt, Germany), and 100 units/mL penicillin G with […] streptomycin (Sigma-Aldrich, Darmstadt, Germany).
(§3) Investigated cells were propagated in Minimum Essential Medium (MEM; Sigma-Aldrich, Darmstadt, Germany) supplemented with 10% heat-inactivated fetal bovine serum (FBS; Sigma-Aldrich, Darmstadt, Germany) and 100 units/mL penicillin G with […] streptomycin (Sigma-Aldrich, Darmstadt, Germany). After reaching 80–90% confluency, cells were harvested with trypsin (Life Technologies, Warsaw, Poland) and seeded into 96-well microplates at 2 × 10^5 cells/mL after overnight incubation of cells at 37 °C in a humidified atmosphere containing 5% CO2.
(§4) The culture medium was removed from confluent cells grown in 96-well microplates, and the cells were inoculated with virus solutions in MEM supplemented with 2% FBS and antibiotics (HSV-1 MOI 0.005, 1000 virions/mL; HPIV-3 MOI 0.01, 2000 virions/mL; AdV5 MOI 0.005, 1000 virions/mL; EMCV 0.005, 1000 virions/mL; HCMV 20 PFU/well (plaque-forming units per well). After a 1-h (HSV-1, HPIV-3, AdV5, and EMCV) or 2-h adsorption period (HCMV), residual viral particles were removed, and infected cells were further incubated with MEM supplemented with 2% FBS containing compound concentrations in the range from 0.1 to 1000 µM [38]. All experiments were carried out in triplicate. The cell monolayers were incubated with the investigated compounds at 37 °C in a humidified atmosphere containing 5% CO2 until a cytopathic effect (CPE) was visible. Viral infection was evaluated by the MTT assay (as described previously) or plaque reduction assay. HCMV plaques were counted under an inverted microscope, Olympus IX73 (Olympus, Tokyo, Japan). Antiviral activity was expressed as the concentration required to reduce the number of viral plaques to 50% of the control (virus-infected but untreated).

[2] = system: Human herpesvirus 1 (HSV-1); experiment: Antiviral activity assay (0.1–1000 µM), IC50; type: cell-based; conditions: Human alphaherpesvirus 1; HSV-1, MOI 0.005
Description: as §1, §2, §3, §4

[3] = system: Human parainfluenza virus type 3 (HPIV-3); experiment: Antiviral activity assay (0.1–1000 µM), IC50; type: cell-based; conditions: Human respirovirus 3, HPIV-3, MOI 0.01; read-out: IC50 HPIV-3
Description: as §1, §2, §3, §4

[4] = system: Human adenovirus 5 (AdV5); experiment: Antiviral activity assay (0.1–1000 µM), IC50; type: cell-based; conditions: Human mastadenovirus C; AdV5, MOI 0.005; read-out: IC50 AdV5
Description: as §1, §2, §3, §4

[5] = system: Human herpesvirus 5 (HCMV); experiment: Antiviral activity assay (0.1–1000 µM), IC50, plaque reduction; type: cell-based; conditions: Human betaherpesvirus 5, 20 PFU/well
Description: as §1, §2, §3, §4

With `COc1cccc(CO[n+]2cn(Cc3cccc(C(F)(F)F)c3)c(-c3ccccc3)c2-c2ccccc2)c1.[Br-]` as the molecule, how does the melting point read?
The melting point was 132 to 134 °C.

With `Cc1c(C)[n+](Cc2ccccc2)cn1Cc1cccc(F)c1` [1e[PF6], 1-Benzyl-3-(3-fluorobenzyl)-4,5-dimethylimidazolium hexafluorophosphate] as the molecule, how does the IC50 [1] read?
Its IC50 is greater than 148 µM.

And the IC50 [2]?
Its IC50 is greater than 56.3 µM.

And the IC50 [3]?
Its IC50 is greater than 150 µM.

What about the IC50 [4] of the same molecule?
The IC50 was greater than 0.08 µM.

What about the IC50 [5] of the same molecule?
The IC50 was greater than 150 µM.

Which melting point does the source give for `Cc1c(C)[n+](Cc2ccccc2)cn1Cc1cccc(F)c1` (as salt: phosphate) [1e[PF6]] [1-Benzyl-3-(3-fluorobenzyl)-4,5-dimethylimidazolium hexafluorophosphate] here?
The melting point was 110 to 112 °C.

For `Cc1cc(C)cc(CO[n+]2cn(Cc3cccc(C(F)(F)F)c3)c(-c3ccccc3)c2-c2ccccc2)c1.[Br-]`, which melting point is on record?
The melting point was 156 to 158 °C.

For `FC(F)(F)c1cccc(Cn2c[n+](OCc3ccccc3)c(-c3ccccc3)c2-c2ccccc2)c1.[Br-]`, which melting point is on record?
Its melting point is 107 to 110 °C.
